{"source": "patent US9737510B2", "about": "“Indazole compounds and a process for the preparation thereof” (Council of Scientific & Industrial Research, priority 2013, dated 2017)", "key": {"Kinetic solubility": {"assay": "Kinetic solubility", "assay_type": "physicochemical"}, "MIN6 cells": {"test_system": "MIN6 cells", "assay": "Insulinotropic activity: insulin secretion from MIN6 cells (ELISA based assay)", "assay_type": "cell-based, mouse", "details": "for Insulin Secretion: standard error in bracket", "description": "Insulinotropic activity of the NDS100178 and NDS100179 was measured by a well-optimized ELISA based Assay (Shantani Protocol #5205) described below.\nMaterials • MIN6Cell (source: National Center for Cell Sciences, Pune) • Mouse Insulin ELISA kit (Mercodia, 10-1247-01) • Plate Shaker (MixMatefromEppendorf) • HEPES Balanced Krebs-Ringer bicarbonate buffer (components as follows)\nMethod • i. Seed proliferating culture of MIN-6 cells into a 6 well plate with almost half the confluency two days before the experiment. • ii. One the day of Insulin induction experiment, the cells should become almost confluent and are in good condition. • iii. On the day of experiment, first prepare 1×KRB-HEPES buffer with 0.1% BSA (for rinse) and without BSA (for equilibration and insulin induction) as described in the materials. • iv. Prepare equilibration buffer: 1×KRB-HEPES buffer without BSA containing 3.3 mM glucose (to bring down the glucose level of all cells to the same level). For example, add 66 ul 1 M glucose stock solution to 20 ml KRB-HEPES buffer without BSA. • v. Prepare the stimulating buffer (insulin induction): 1×KRB-HEPES buffer without BSA containing the defined glucose level (in most cases, it will be 16.7 mM glucose) and the desired concentration of molecule. • vi. Pre warm all the buffers to 37° C. in the water bath (at 15 minutes). • vii. Remove media from all wells, rinse each well twice with 2 ml KRB-HEPES buffer containing 0.1% BSA. • viii. Add 2 ml of equilibration buffer in each well and incubate at 37° C. for half an hour. • ix. After the incubation add 2 ml of stimulating buffer in respective wells (properly labelled) and incubate 37° C. for 1 hour. • x. In the meanwhile, turn on the refrigerated centrifuge and set the temperature to 4° C. Take out enzyme conjugate, diluent buffer, Calibrator 0 and stripes needed (for example, two stripes for 8 samples to be run in duplicate) from Mercodia ELISA kit box (store at 4° C.) and warm up them to RT. • xi. […] Centrifuge the tubes at 600 g for 5 min. • xiii. Take out 500 ul in fresh properly labelled precooled tubes. • xiv. Now dilute the samples 1:30 in calibrator 0 i.e. add 3 ul of each sample to 87 ul of Calibrator 0 in 8 different properly labelled 0.5 ml tubes. Mix them well. • xv. Prepare 1× enzyme conjugate buffer, i.e. mix 180 ul enzyme (11×) with 1800 ul diluent buffer for ELISA of two stripes. • xvi. Add 10 ul of each sample (diluted, in duplicate) in the two adjacent wells. Be careful not to touch the bottom. • xvii. Carefully add 100 ul of Enzyme Conjugate buffer (1×) to each well and incubate on a plate shaker (eppendorf MixMate) at 800 rpm for 2 hours at 25° C. • xviii. 45 min before the incubation is over take out wash buffer, substrate TMB and Stop solution. Keep them at RT. • xix. 5 min before the incubation is over prepare 1× wash buffer (21×), i.e. 40 ml distilled water+2 ml (21×) wash buffer in a reservoir. • xx. After the incubation is over, wash each well 7 times with 350 ul wash buffer. Use a multichannel (175 ul). • xxi. After the washing add 200 uL substrate TMB solution in each well. Maintain a proper pace. • xxii. Allow to incubate for 15 min. Set the program on the plate reader, to take absorbance read at 450 nm. Add a 5 sec shake step to allow proper mixing. • xxiii. After incubation immediately add 50 ul Stop solution in each well at same pace and take absorbance read at 450 nm.\nAssay conditions were kept same in all the assays. The difference in absorption-value for control experiment (no treatment with molecule) over different days is attributed to cell culture conditions. Other varying conditions are specified in the respective graphs.\n[Note: If not mentioned specifically, HG=High Glucose (16.7 mM), LG=Low Glucose (3.3 mM)]"}, "Human Islets": {"test_system": "Human Islets", "assay": "GSIS enhancement in human islets", "assay_type": "cell-based", "details": "low and high glucose", "description": "(§1) NDS100179 induced insulin measurements at low and high glucose condition were carried out in Human Islets, Mice and MIN6 cells."}, "[1]": {"assay": "Metabolic study and intrinsic clearance in MLM", "assay_type": "in vitro ADME"}, "HepG2 cells": {"test_system": "HepG2 cells", "assay": "Glucose uptake (2-NBDG) in insulin resistant HepG2 cells", "assay_type": "cell-based", "details": "24 hours with drug, 2-NBDG 15 min", "description": "The assay was performed after making the HepG2 cells insulin resistant by culturing them in high glucose condition with respective drugs for 24 hours. The assay was performed after 24 hours by allowing the cells to starve for 2 hrs in serum free media (containing respective drug) followed by 30 min incubation in KRB buffer (with respective drugs) and lastly incubating with 2-NBDG (fluorescent glucose analgoue) for 15 min. The cells were thoroughly washed and lysed with 1% triton-X. The fluorescence reading was immediately taken at Ex:465 and […]."}, "Metabolic study in HLM": {"assay": "Metabolic study in HLM", "assay_type": "in vitro ADME"}, "C57BL/6J mice [2]": {"test_system": "C57BL/6J mice", "assay": "Oral glucose tolerance test, glucose reduction in non-diabetic C57BL/6J mice", "assay_type": "in vivo", "details": "fasted male C57BL/6J mice, oral dose with 3 g/kg glucose, 0-120 minutes", "description": "12-13 weeks male C57BL/6J mice were fasted overnight. In the morning animals were orally dosed with different concentrations of NDS100179 or control vehicle along with 3 g/kg of glucose. Blood glucose was measured just before the dose and then 30, 60 90 and 120 minutes after the compound dose."}, "C57BL/6J mice [3]": {"test_system": "C57BL/6J mice", "assay": "Insulin increase / GSIS in C57BL/6J mice", "assay_type": "in vivo", "description": "Insulin at 0 and 15 minutes time points was also measured in the studies conducted above where 12-13 weeks male C57BL/6J mice were fasted overnight and in the morning orally dosed with different concentrations of NDS100179 or control vehicle along with 3 g/kg of glucose.\nas §1"}, "CYP3A4": {"target": "CYP3A4 (Homo sapiens, UniProt P08684)", "sequence (P08684 whole entry)": "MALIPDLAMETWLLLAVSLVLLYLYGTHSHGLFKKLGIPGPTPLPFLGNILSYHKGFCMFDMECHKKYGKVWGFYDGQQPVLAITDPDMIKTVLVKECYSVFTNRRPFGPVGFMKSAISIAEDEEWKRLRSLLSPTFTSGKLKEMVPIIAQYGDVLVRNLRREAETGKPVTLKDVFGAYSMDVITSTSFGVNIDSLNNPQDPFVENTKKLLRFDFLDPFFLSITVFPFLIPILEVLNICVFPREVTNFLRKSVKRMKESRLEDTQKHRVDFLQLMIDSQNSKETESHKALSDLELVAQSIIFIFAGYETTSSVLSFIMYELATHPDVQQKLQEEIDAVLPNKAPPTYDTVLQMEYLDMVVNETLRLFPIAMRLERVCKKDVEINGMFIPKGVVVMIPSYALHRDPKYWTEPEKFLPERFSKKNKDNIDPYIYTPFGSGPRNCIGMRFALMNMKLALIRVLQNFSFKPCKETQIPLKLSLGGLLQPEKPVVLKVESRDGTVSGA", "assay": "CYP3A4 inhibition", "assay_type": "in vitro ADME"}, "Pharmacokinetics in mice": {"assay": "Pharmacokinetics in mice", "assay_type": "in vivo", "text": "Based on the pharmacokinetics studies performed in Mice NDS100179 is 100% orally bioavailable compound (FIG. 9)."}, "db/db mice": {"test_system": "db/db mice", "assay": "30 day oral treatment of db/db mice (fasted glucose, OGTT, beta-cell function, triglyceride, body weight)", "assay_type": "in vivo", "description": "db/db or leptin null mice are well accepted model of diabetes. 7 week old db/db mice were dosed orally with 10 mg/kg, 30 mg/kg of NDS100179 and vehicle alone for 30 days. Fasted plasma glucose levels in the animals were measured before the start of the study, at day 15 and day 30.\n7 week db/db mice were dosed orally with 10 mg/kg, 30 mg/kg of NDS100179 and vehicle alone for 30 days. Beta-cell functionality was assessed using HOMA-beta % calculations at the end of 30 days.\n7 week db/db mice were dosed orally with 10 mg/kg, 30 mg/kg of NDS100179 and vehicle alone for 30 days. Triglyceride levels were measured at the end of 30 days.\n7 week db/db mice were dosed orally with 10 mg/kg, 30 mg/kg of NDS100179 and vehicle alone for 30 days. Animal body weight was measured every third day."}, "[4]": {"details": "oral 10 mg/kg, 30 mg/kg, end of 30 days"}}}
{"substance": "5-Chloro-3-(4,5-dihydro-1H-imidazol-2-yl)-1-methyl-3a,7a-dihydro-1H-indazole [NDS100179]", "values": [{"measurement": "solubility kinetic", "setting": "Kinetic solubility", "value": 205.27, "unit": "µM"}, {"measurement": "insulin secretion from MIN6 cells in high glucose conditions", "setting": "MIN6 cells; 33 uM, 1 hour, high glucose (16.7 mM), three different days", "value": "significant increase in the insulin secretion"}, {"measurement": "insulin secretion over control", "setting": "MIN6 cells; MIN6 cells, 10 nM", "value": "not found to be statistically significant"}, {"measurement": "insulin secretion over control", "setting": "MIN6 cells; MIN6 cells, 50 nM", "value": "active insulinotrope"}, {"measurement": "insulin secretion over control", "setting": "MIN6 cells; MIN6 cells, 100 nM", "value": "active insulinotrope"}, {"measurement": "Insulin Secretion", "setting": "MIN6 cells; MIN6 cells, compound 0.1 μM", "value": "5.55 (1.0) ng/ml"}, {"measurement": "Insulin Secretion", "setting": "MIN6 cells; MIN6 cells, compound 1.0 μM", "value": "10.27 (0.6) ng/ml"}, {"measurement": "Insulin Secretion", "setting": "MIN6 cells; MIN6 cells, compound 10.0 μM", "value": "15.45 (1.2) ng/ml"}, {"measurement": "glucose dependence of insulinotropic activity", "setting": "MIN6 cells; MIN6 cells, high glucose vs lower glucose conditions", "value": "glucose dependent"}, {"measurement": "GSIS enhancement", "setting": "MIN6 cells; MIN6 cells, low and high glucose", "value": "enhance insulin secretion only at high glucose concentration"}, {"measurement": "GSIS enhancement", "setting": "Human Islets", "value": "enhance insulin secretion only at high glucose concentration"}, {"measurement": "Intrinsic Clearnace MLM", "setting": "[1]", "value": "63.7 μl/min/mg of protein"}, {"measurement": "Metabolic Study MLM Mean % PCR*", "setting": "[1]", "value": 39.25, "unit": "%"}, {"measurement": "glucose uptake in HepG2 cells", "setting": "HepG2 cells", "value": "increase glucose uptake"}, {"measurement": "Metabolic Study HLM Mean % PCR*", "setting": "Metabolic study in HLM", "value": 80.11, "unit": "%"}, {"measurement": "blood glucose (oral glucose tolerance test)", "setting": "C57BL/6J mice [2]", "value": "dose dependently reduce the blood glucose"}, {"measurement": "GSIS enhancement", "setting": "C57BL/6J mice [3]; Mice, low and high glucose", "value": "enhance insulin secretion only at high glucose concentration"}, {"measurement": "insulin secretion in mice", "setting": "C57BL/6J mice [3]; fasted male C57BL/6J mice, oral dose with 3 g/kg glucose, 0 and 15 minutes", "value": "blood plasma concentration glucose dependent"}, {"measurement": "CYP3A4 Inhibition", "setting": "CYP3A4", "value": "No inhibition"}, {"measurement": "AUC(0-t)", "setting": "Pharmacokinetics in mice", "value": 837.113, "unit": "ng·h/mL"}, {"measurement": "AUC(inf)", "setting": "Pharmacokinetics in mice", "value": 854.231, "unit": "ng·h/mL"}, {"measurement": "AUC(inf)/AUC(0-t) %", "setting": "Pharmacokinetics in mice", "value": 102.049, "unit": "%"}, {"measurement": "Cmax", "setting": "Pharmacokinetics in mice", "value": 631.1, "unit": "ng/mL"}, {"measurement": "Tmax", "setting": "Pharmacokinetics in mice", "value": 15, "unit": "min"}, {"measurement": "oral bioavailability", "setting": "Pharmacokinetics in mice", "value": 100, "unit": "%"}, {"measurement": "t½", "setting": "Pharmacokinetics in mice", "value": 102, "unit": "min"}, {"measurement": "glucose tolerance (OGTT)", "setting": "db/db mice; at the end of 30 days of oral treatment", "value": "significant improvement in glucose tolerance"}, {"measurement": "fasted plasma glucose (basal glucose level)", "setting": "db/db mice; oral 10 mg/kg and 30 mg/kg for 30 days, day 0, 15, 30", "value": "significant control in rise of basal glucose level"}, {"measurement": "body weight", "setting": "db/db mice; oral 10 mg/kg, 30 mg/kg for 30 days, measured every third day", "value": "No significant change in body weight"}, {"measurement": "beta-cell function (HOMA-beta %)", "setting": "db/db mice; [4]", "value": "significant improvements in beta-cell functions"}, {"measurement": "triglyceride levels", "setting": "db/db mice; [4]", "value": "significant reduction in triglyceride levels"}, {"measurement": "rise in fasted blood glucose levels", "setting": "db/db mice; oral 30 mg/kg for 30 days", "value": "no statistically significant rise"}]}
